Our source for the TGI and GI50 values is PubChem BioAssay (NCI).

SMILES strings stand for the structures.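 Values below derive from 48-hour exposures of cells grown in 96-well plates, with endpoints linearly interpolated between the two concentrations bracketing the appropriate inhibition level. At the GI50, growth is halved. TGI denotes the concentration required for complete inhibition of growth.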

Experiment in all cases: growth of human tumour cells (NCI), 48 h
The subject of experiment [1] is CAKI-1 renal.
In experiment [2] the test system is RXF 393 renal.
Experiment [3] relates to A498 renal.
The test system of experiment [4] is NCI-H23 lung.
Experiment [5] deals with NCI-H226 lung.
Experiment [6] relates to SF-268 CNS.
Experiment [7] relates to TK-10 renal.
Experiment [8] relates to M14 melanoma.
The subject of experiment [9] is HCT-15 colon.

Regarding `COC(=O)C12C3C4C1C1C2C3C41I` (configuration not stated), the TGI in experiment [1], in experiment [2], in experiment [3], in [4], in [5] and in [6] was greater than 100 µM in each case. Also, the TGI in experiment [7], in experiment [8] and in experiment [9] was greater than 100 µM each time.
On to `O=C1c2cccc3cc([N+](=O)[O-])cc(c23)C(=O)N1CCCN1CCN(CCCN2C(=O)c3cccc4cc([N+](=O)[O-])cc(c34)C2=O)CC1`, for which the TGI in [2] stood at 1.76 µM; in [3], 3.87 µM; in experiment [4], 7.64 µM; in experiment [5], 1.37 µM; in [7], 16 µM; in [8], 4.87 µM. This compound also displayed a TGI in experiment [9] greater than 100 µM.
As for `COc1cccc2c1C1=CC(=O)CCC1C(C)(C)O2` (configuration not stated), the TGI in [1], in experiment [2], in experiment [3], in experiment [4], in experiment [5] and in experiment [6] was greater than 100 µM throughout. Besides, the TGI in [7], in [8] and in experiment [9] was greater than 100 µM in each case.
Turning to `O=C(/C=C/c1ccc([N+](=O)[O-])o1)NNC(=O)c1cc2ccccc2cc1O`, the GI50 in [1] is 1.04 µM; in experiment [2] it was 0.236 µM; in experiment [3], 2.11 µM; in [4] it was 1.05 µM; in experiment [5], 3.51 µM; in experiment [6], 1.29 µM. The values for the GI50 in experiment [7], in [8] and in [9] were 2.9 µM, 0.738 µM and 0.714 µM, respectively. Besides, the TGI in experiment [2] was 0.94 µM; in [3] it was 6.17 µM; in [4] it was 5.03 µM; in [5] it was 34.1 µM; in experiment [6], greater than 100 µM; in experiment [7], greater than 100 µM. Further, the TGI in experiment [8] was determined as 2.29 µM; in experiment [9], 2.91 µM.
For the compound `CCCCCCCCCCCCC(SCCNC(=O)CCNC(=O)C(O)C(C)(C)COP(=O)(O)OP(=O)(O)OCC1OC(n2cnc3c(N)ncnc32)C(O)C1OP(=O)(O)O)C(=O)NCC(N)=O` (configuration not stated), the TGI in experiment [2], in experiment [3], in experiment [4], in experiment [5], in [6] and in experiment [7] was greater than 100 µM each time. The TGI in experiment [8] and in [9] was greater than 100 µM throughout.
`Cn1cc(NC(=O)c2cc(NC(=O)CCCCCC(=O)Nc3cc(C(=O)Nc4cc(C(=O)NCCC(=N)N)n(C)c4)n(C)c3)cn2C)cc1C(=O)NCCC(=N)N`: the TGI in [1], in [2], in experiment [3], in experiment [4], in [6] and in experiment [7] was greater than 100 µM each time. The TGI in experiment [8] and in experiment [9] was greater than 100 µM each time.
Regarding `CCCCCCCCCCCC(=O)C1=C(O)C(O)CCC1=O` (configuration not stated), the TGI in experiment [1] is 70.6 µM; in experiment [2], greater than 100 µM; in [3], 43.2 µM; in experiment [4], 20 µM; in [5] it was 70.3 µM; in experiment [6], greater than 100 µM. For the same compound, the TGI in experiment [7] came out at 49 µM; in experiment [9], 27.3 µM.
On to `CN(C)CCNC(=O)c1cc([N+](=O)[O-])cc2ccc(-c3ccccc3)nc12`, for which the TGI in experiment [1] was greater than 40.4 µM; in [2] it was 22.8 µM; in [3] it was 14.4 µM; in [4], 27.6 µM; in experiment [5] it was 11.8 µM; in experiment [6], 50 µM. The values for the TGI in experiment [7], in experiment [8] and in experiment [9] were 95.5 µM, greater than 100 µM and greater than 56.6 µM, respectively.
Regarding `CCOC(=O)c1c2ccc(/C=C/C(=O)OC)ccc-2c(C(=O)OCC)c1N`, the TGI in experiment [1] was greater than 100 µM; in experiment [2] it was greater than 100 µM; in [3], 49.4 µM; in experiment [4], greater than 100 µM; in experiment [5] it was greater than 100 µM; in experiment [6], 9.68 µM. For the same compound, the TGI in experiment [7], in experiment [8] and in experiment [9] was greater than 100 µM in each case.
On to `CC/C=C\C[C@H](O)C/C=C1/C(=O)C=C[C@@H]1C/C=C\CCCC(N)=O`, for which the GI50 was 1.62 µM in [1]; 1.94 µM in [2]; 2.9 µM in experiment [3]; 2.13 µM in experiment [4]; 2.34 µM in experiment [5]; 2.96 µM in [6]. Also, the GI50 in experiment [7] is 3.16 µM; in experiment [8], 2.31 µM; in experiment [9], 1.74 µM. The TGI was determined as 3.92 µM in experiment [1]; 3.69 µM in [2]; 7.07 µM in [3]; 5.27 µM in [4]; 5.48 µM in experiment [5]; 11.7 µM in experiment [6]. Besides, the TGI stood at 6.95 µM in [7], 6.89 µM in [8] and 5.69 µM in experiment [9].
Regarding `C=C1C(=O)O[C@H]2[C@H]1CC/C(COC(=O)c1ccc(C(=O)O)s1)=C\CC[C@@]1(C)O[C@@H]21`, the GI50 in experiment [1] was 1.71 µM; in experiment [2], 1.97 µM; in [3], 7.5 µM; in experiment [4], 3.34 µM; in [5], 12.2 µM; in [6] it was 2.08 µM. Moreover, the GI50 in [7] was 1.64 µM; in experiment [8], 1.52 µM; in experiment [9], 1.65 µM. Also, the TGI in experiment [1] was 3.11 µM; in experiment [2] it was 3.92 µM; in experiment [3] it was 20.3 µM; in experiment [4], 11.8 µM; in experiment [5], 30.5 µM; in experiment [6], 4.69 µM. The TGI in experiment [7] came out at 3.44 µM; in experiment [8], 3.43 µM; in [9], 4.72 µM.
`Cn1nnnc1[N-]Cc1ccccc1.[Au+].c1ccc([PH+](c2ccccc2)c2ccccc2)cc1`: the GI50 was 2.29 µM in experiment [1]; 1.29 µM in [2]; 3.35 µM in experiment [4]; 8.49 µM in experiment [5]; 3.45 µM in [6]; 2.46 µM in experiment [7]. For the same compound, the GI50 in [8] is 1.67 µM; in [9], 2.53 µM. The TGI stood at 4.99 µM in experiment [1]; 2.68 µM in [2]; 10.4 µM in [4]; 29.7 µM in [5]; 14 µM in [6]; 5.02 µM in experiment [7]. In addition, the TGI is 3.83 µM in experiment [8] and 9.18 µM in experiment [9].
`COc1cc2ccc3c4cc(OC)c(OCc5ccccc5)cc4cnc3c2cc1OC`: the TGI in [1], in experiment [3], in experiment [4], in [6], in experiment [7] and in [8] was greater than 100 µM in each case.
On to `O=C(N=Nc1c(O)[nH]c2ccccc12)c1ccccc1O`, for which the TGI is greater than 100 µM in experiment [2]; 94.6 µM in experiment [3]; 92 µM in [4]; greater than 100 µM in experiment [5]; greater than 100 µM in [6]; greater than 100 µM in experiment [7]. The TGI in experiment [8] and in experiment [9] was greater than 100 µM throughout.
In the case of `CC1=C2N3C[C@@H](n4c(=O)n(C)c(=O)n43)C23CCC1n1c(=O)n(C)c(=O)n13`, the TGI in experiment [1], in experiment [3], in [4], in experiment [5], in experiment [6] and in [7] was greater than 100 µM throughout. In addition, the TGI in experiment [8] was greater than 100 µM; in experiment [9] it was 52.8 µM.
Regarding `CC(C)(C)N=CN1CCC(C(c2ccccc2)c2ccccc2)CC1`, the TGI was greater than 100 µM in [1]; 98.7 µM in [2]; greater than 100 µM in experiment [3]; greater than 100 µM in experiment [4]; greater than 100 µM in experiment [6]; greater than 100 µM in experiment [7]. In [9], this compound displayed a TGI greater than 100 µM.
On to `CC(C)(C)C([O-])=C1C(=O)c2ccccc2C1=O.CC(C)(C)C([O-])=C1C(=O)c2ccccc2C1=O.CC[O-].CC[O-].[Ti+4]`, for which the GI50 in experiment [1] is 28 µM; in experiment [2], 10.8 µM; in experiment [4] it was 31.8 µM; in [5], 56.7 µM; in experiment [6], 70.6 µM; in experiment [8], 57.4 µM. Also, the GI50 in experiment [9] is 29.5 µM. In addition, the TGI in [1] was 81.7 µM; in [2], 90.3 µM; in experiment [4], greater than 100 µM; in experiment [5], greater than 100 µM; in experiment [6], greater than 100 µM; in [8], greater than 100 µM. The compound also returned a TGI in experiment [9] greater than 100 µM.
Turning to `C=CCN(N=O)C(=O)N(CCC)CCCC(NC(C)=O)C(=O)NCc1ccccc1` (configuration not stated), the TGI in experiment [1], in [2], in experiment [3], in [4], in experiment [6] and in experiment [7] was greater than 100 µM throughout. Further, the TGI in experiment [8] and in experiment [9] was greater than 100 µM throughout.
